In PubChem BioAssay (NCI):
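Test compounds were applied to cells in 96-well plates for 48 hours at 5 doses. The concentration for full growth arrest is given as TGI.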

Key:
Assay in all cases: growth of human tumour cells (NCI), 48 h
[1] = tested on: MOLT-4 leukemia
[2] = tested on: MDA-MB-231 breast
[3] = tested on: DU-145 prostate
[4] = tested on: CCRF-CEM leukemia
[5] = tested on: BT-549 breast
[6] = tested on: OVCAR-3 ovarian
[7] = tested on: RPMI-8226 leukemia
[8] = tested on: OVCAR-8 ovarian
[9] = tested on: U251 CNS
[10] = tested on: IGROV1 ovarian
[11] = tested on: SK-OV-3 ovarian
[12] = tested on: RXF 393 renal
[13] = tested on: CAKI-1 renal
[14] = tested on: T-47D breast
[15] = tested on: UO-31 renal
[16] = tested on: ACHN renal
[17] = tested on: SF-295 CNS
[18] = tested on: PC-3 prostate
[19] = tested on: MCF7 breast
[20] = tested on: SNB-75 CNS
[21] = tested on: SNB-19 CNS
[22] = tested on: MDA-MB-435
[23] = tested on: SN12C renal
[24] = tested on: A549 NSCLC
[25] = tested on: HCC-2998 colon
[26] = tested on: HT29 colon
[27] = tested on: NCI-H23 lung
[28] = tested on: COLO 205 colon
[29] = tested on: UACC-257 melanoma
[30] = tested on: NCI-H460 lung
[31] = tested on: NCI/ADR-RES ovarian
[32] = tested on: HCT-116 colon
[33] = tested on: TK-10 renal
[34] = tested on: MDA-N
[35] = tested on: SK-MEL-28 melanoma
[36] = tested on: M14 melanoma
[37] = tested on: K-562 leukemia
[38] = tested on: HOP-62 NSCLC
[39] = tested on: EKVX NSCLC
[40] = tested on: UACC-62 melanoma
[41] = tested on: HOP-92 NSCLC
[42] = tested on: SK-MEL-5 melanoma
[43] = tested on: SW-620 colon
[44] = tested on: OVCAR-4 ovarian
[45] = tested on: LOX IMVI melanoma
[46] = tested on: NCI-H226 lung
[47] = tested on: SK-MEL-2 melanoma
[48] = tested on: SF-539 CNS
[49] = tested on: OVCAR-5 ovarian
[50] = tested on: A498 renal
[51] = tested on: KM12 colon
[52] = tested on: MALME-3M melanoma
[53] = tested on: HS 578T breast
[54] = tested on: NCI-H522 lung
[55] = tested on: HCT-15 colon
[56] = tested on: SF-268 CNS
[57] = tested on: 786-0 renal
[58] = tested on: SR leukemia

CC/C=C(\C(=C/CC)[N+](=O)[O-])[N+](=O)[O-]
TGI [1]: 64.9 µM | TGI [2]: 36.2 µM | TGI [3]: 45.7 µM | TGI [4]: 42.4 µM | TGI [5]: 32.2 µM | TGI [6]: 30.5 µM | TGI [7]: 47.6 µM | TGI [8]: 39 µM | TGI [9]: 34.3 µM | TGI [10]: 35.9 µM | TGI [11]: > 100 µM | TGI [12]: 31 µM | TGI [13]: 37.8 µM | TGI [14]: 55.6 µM | TGI [15]: 33 µM | TGI [16]: 33.2 µM | TGI [17]: > 100 µM | TGI [18]: > 100 µM | TGI [19]: 38.1 µM | TGI [20]: > 100 µM | TGI [21]: > 100 µM | TGI [22]: 31.6 µM | TGI [23]: 35.2 µM | TGI [24]: > 100 µM | TGI [25]: 34.4 µM | TGI [26]: 31.9 µM | TGI [27]: 34.3 µM | TGI [28]: 37 µM | TGI [29]: 32.1 µM | TGI [30]: 35.5 µM | TGI [31]: 52.7 µM | TGI [32]: 35.1 µM | TGI [33]: 33.7 µM | TGI [34]: 43 µM | TGI [35]: 37.1 µM | TGI [36]: 27 µM | TGI [37]: 71.3 µM | TGI [38]: > 100 µM | TGI [39]: 29.8 µM | TGI [40]: 33.6 µM | TGI [41]: 45.1 µM | TGI [42]: 47.9 µM | TGI [43]: 32 µM | TGI [44]: 45.7 µM | TGI [45]: 32.2 µM | TGI [46]: > 100 µM | TGI [47]: > 100 µM | TGI [48]: 40.3 µM | TGI [49]: 27.2 µM

C=CCO[C@]1(CC=C)C(=O)C(=O)OC1C1COC(C)(C)O1 (some centres undefined)
TGI [50]: > 100 µM | TGI [1]: 93.8 µM | TGI [2]: > 100 µM | TGI [3]: > 100 µM | TGI [4]: 89.5 µM | TGI [6]: > 100 µM | TGI [7]: 73 µM | TGI [8]: 81.6 µM | TGI [9]: > 100 µM | TGI [10]: > 100 µM | TGI [12]: 40.8 µM | TGI [13]: 41.9 µM | TGI [14]: > 100 µM | TGI [15]: > 100 µM | TGI [16]: 31.1 µM | TGI [17]: > 100 µM | TGI [18]: > 100 µM | TGI [19]: 42 µM | TGI [20]: 77.2 µM | TGI [21]: > 100 µM | TGI [22]: > 100 µM | TGI [23]: > 100 µM | TGI [24]: > 100 µM | TGI [51]: 39.3 µM | TGI [52]: 32.3 µM | TGI [53]: > 100 µM | TGI [25]: > 100 µM | TGI [26]: 37.2 µM | TGI [27]: > 100 µM | TGI [28]: 37.5 µM | TGI [29]: > 100 µM | TGI [30]: > 100 µM | TGI [31]: > 100 µM | TGI [32]: 74.7 µM | TGI [34]: > 100 µM | TGI [54]: 43.6 µM | TGI [55]: 42 µM | TGI [37]: > 100 µM | TGI [38]: > 100 µM | TGI [39]: > 100 µM | TGI [56]: > 100 µM | TGI [41]: 41.3 µM | TGI [57]: > 100 µM | TGI [58]: 67 µM | TGI [42]: 97.6 µM | TGI [43]: 35.4 µM | TGI [45]: 31.5 µM | TGI [46]: > 100 µM | TGI [48]: > 100 µM | TGI [49]: > 100 µM
